Measurements reported in PMC12736255, “Reinvestigating Pyrrol-2-One-Based Compounds: From Antimicrobial Agents to Promising Antitumor Candidates” (Pharmaceuticals, 2025).

Key:
UO-31 = experiment: NCI-60 single-dose screen; assay type: cell-based, human; conditions: UO-31, 10^–5 M
In short: (§1)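 Screening was run by the National Cancer Institute at one dose (10^−5 M) in its 60-line human cancer panel.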

HOP-62 = experiment: NCI-60 single-dose screen; assay type: cell-based, human; conditions: HOP-62, 10^–5 M
In short: as §1

SF-295 = experiment: NCI-60 single-dose screen; assay type: cell-based, human; conditions: SF-295, 10^–5 M
In short: as §1

U251 = experiment: NCI-60 single-dose screen; assay type: cell-based, human; conditions: U251, 10^–5 M
In short: as §1

MDA-MB-468 = experiment: NCI-60 single-dose screen; assay type: cell-based, human; conditions: MDA-MB-468, 10^–5 M
In short: as §1

BT-549 = experiment: NCI-60 single-dose screen; assay type: cell-based, human; conditions: BT-549, 10^–5 M
In short: as §1

MDA-MB-435 = experiment: NCI-60 single-dose screen; assay type: cell-based; conditions: Homo sapiens; MDA-MB-435, 10^–5 M; read-out: GI (%)
In short: as §1

SNB-75 = experiment: NCI-60 single-dose screen; assay type: cell-based; conditions: Homo sapiens; SNB-75, 10^–5 M; read-out: GI (%)
In short: as §1

SF-539 = experiment: NCI-60 single-dose screen; assay type: cell-based; conditions: Homo sapiens; SF-539, 10^–5 M; read-out: GI (%)
In short: as §1

MCF7 = experiment: NCI-60 single-dose screen; assay type: cell-based; conditions: Homo sapiens; MCF7, 10^–5 M; read-out: GI (%)
In short: as §1

SR = experiment: NCI-60 single-dose screen; assay type: cell-based; conditions: Homo sapiens, 10^–5 M, read-out: GI (%)
In short: as §1

NCI-H460 = experiment: NCI-60 single-dose screen; assay type: cell-based; conditions: Homo sapiens; NCI-H460, 10^–5 M; read-out: GI (%)
In short: as §1

HCT-15 = experiment: NCI-60 single-dose screen; assay type: cell-based; conditions: Homo sapiens; HCT-15, 10^–5 M; read-out: GI (%)
In short: as §1

M14 = experiment: NCI-60 single-dose screen; assay type: cell-based; conditions: Homo sapiens; M14, 10^–5 M; read-out: GI (%)
In short: as §1

K-562 = experiment: NCI-60 single-dose screen; assay type: cell-based; conditions: Homo sapiens, K562; K-562, 10^–5 M; read-out: GI (%)
In short: as §1

NCI-H522 = experiment: NCI-60 single-dose screen; assay type: cell-based; conditions: Homo sapiens; NCI-H522, 10^–5 M; read-out: GI (%)
In short: as §1

HT-29 = experiment: NCI-60 single-dose screen; assay type: cell-based; conditions: Homo sapiens; HT-29, 10^–5 M; read-out: GI (%)
In short: as §1

HS 578T = experiment: NCI-60 single-dose screen; assay type: cell-based; conditions: Homo sapiens, 10^–5 M, read-out: GI (%)
In short: as §1

OVCAR-8 = experiment: NCI-60 single-dose screen; assay type: cell-based; conditions: Homo sapiens; OVCAR-8, 10^–5 M; read-out: GI (%)
In short: as §1

SN12C = experiment: NCI-60 single-dose screen; assay type: cell-based; conditions: Homo sapiens, 10^–5 M, read-out: GI (%)
In short: as §1

SK-MEL-5 = experiment: NCI-60 single-dose screen; assay type: cell-based; conditions: Homo sapiens; SK-MEL-5, 10^–5 M; read-out: GI (%)
In short: as §1

LN-229 = experiment: CellTiter-Glo 2.0 cytotoxicity, glioblastoma; assay type: cell-based, human; conditions: LN-229, 24 h
Method: Cytotoxicity of compounds was assessed using the CellTiter-Glo® 2.0 Assay (Promega, Madison, WI, USA) on human gingival fibroblasts (HGF), osteosarcoma (HOS and MG-63) and glioblastoma (LN-229 and U-118MG) cells, according to the manufacturer’s instructions. HGF, HOS, MG-63 and U-118MG cells were purchased from Cytion GmbH, Eppelheim, Germany, and LN-229 (CRL-2611) from the American Type Culture Collection (ATCC), Manassas, VA, USA. Cells were seeded (50,000 cells/mL—HGF, 100,000 cells/mL—tumor cells) into 96-well opaque white tissue culture-treated plates and allowed to adhere overnight in αMEM medium with 10% fetal bovine serum and 1% antibiotic-antimycotic (all from PAN—Biotech GmbH, Aidenbach, Germany). Cells were incubated with compounds (10 or 50 µM) for 24 h, then CellTiter-Glo® reagent was added and luminescence was recorded using a FLUOstar® Omega microplate reader (BMG LABTECH, Ortenberg, Germany). The experiments were carried out in triplicate, and the viability of treated cells was expressed as a percentage of the viability of control cells (untreated). Data were represented as means ± standard deviations. Stock solutions of compounds were prepared in DMSO, then diluted in complete cell culture media. […] Data were analyzed with independent two-tailed (Student’s) t-test, considering p < 0.05 statistically significant.

TK-10 = experiment: NCI-60 5-dose screen; assay type: cell-based, human; conditions: for GI50 / CC50: Homo sapiens; for CC50: read-out: LC50 (the source's name)
HOP-92 = experiment: NCI-60 5-dose screen; assay type: cell-based, human; conditions: for GI50 / CC50: Homo sapiens; for CC50: read-out: LC50 (the source's name)
SK-MEL-2 = experiment: NCI-60 5-dose screen; assay type: cell-based, human; conditions: for GI50 / CC50: Homo sapiens; for CC50: read-out: LC50 (the source's name)
NCI-H226 = experiment: NCI-60 5-dose screen; assay type: cell-based, human; conditions: for GI50 / CC50: Homo sapiens; for CC50: read-out: LC50 (the source's name)
T-47D = experiment: NCI-60 5-dose screen; assay type: cell-based, human; conditions: for GI50 / CC50: Homo sapiens, T47D; for CC50: read-out: LC50 (the source's name)
PC-3 = experiment: NCI-60 5-dose screen; assay type: cell-based, human; conditions: for GI50 / CC50: Homo sapiens; for CC50: read-out: LC50 (the source's name)
RPMI-8226 = experiment: NCI-60 5-dose screen; assay type: cell-based, human; conditions: for GI50 / CC50: Homo sapiens; for CC50: read-out: LC50 (the source's name)
A498 = experiment: NCI-60 5-dose screen; assay type: cell-based, human; conditions: for GI50 / CC50: Homo sapiens; for CC50: read-out: LC50 (the source's name)

## COc1cc(OC)c(C2C=C(Nc3ccc(I)cc3)C(=O)N2c2ccc(I)cc2)cc1OC (stereo not drawn) [3k]
UO-31
  GI (%): 0%
HOP-62
  GI (%): 0%
SF-295
  GI (%): 2%
U251
  GI (%): 0%
MDA-MB-468
  GI (%): 44%
BT-549
  GI (%): 10%
MDA-MB-435
  inhibition at 10 µM: 0%
SNB-75
  inhibition at 10 µM: 0%
SF-539
  inhibition at 10 µM: 18%
MCF7
  inhibition at 10 µM: 23%
SR
  inhibition at 10 µM: 7%
NCI-H460
  inhibition at 10 µM: 0%
HCT-15
  inhibition at 10 µM: 0%
M14
  inhibition at 10 µM: 0%
K-562
  inhibition at 10 µM: 0%
NCI-H522
  inhibition at 10 µM: 2%
HT-29
  inhibition at 10 µM: 0%
HS 578T
  inhibition at 10 µM: 0%
OVCAR-8
  inhibition at 10 µM: 0%
SN12C
  inhibition at 10 µM: 2%
SK-MEL-5
  inhibition at 10 µM: 12%
LN-229
  cytotoxicity (activity in words): ineffective

## N#Cc1ccc(C2C=C(Nc3ccc(I)cc3)C(=O)N2c2ccc(I)cc2)cc1 (stereo not drawn) [3l]
MDA-MB-435
  inhibition at 10 µM: 19%
SNB-75
  inhibition at 10 µM: 100%
SF-539
  inhibition at 10 µM: 35%
MCF7
  inhibition at 10 µM: 52%
SR
  inhibition at 10 µM: 87%
NCI-H460
  inhibition at 10 µM: 40%
HCT-15
  inhibition at 10 µM: 21%
M14
  inhibition at 10 µM: 63%
K-562
  inhibition at 10 µM: 14%
NCI-H522
  inhibition at 10 µM: 32%
HT-29
  inhibition at 10 µM: 40%
HS 578T
  inhibition at 10 µM: 100%
OVCAR-8
  inhibition at 10 µM: 30%
SN12C
  inhibition at 10 µM: 59%
SK-MEL-5
  inhibition at 10 µM: 24%
LN-229
  cytotoxicity (activity in words): ineffective
TK-10
  TGI: >100 µM
  GI50: 3.85 µM
  CC50: > 100 µM
HOP-92
  TGI: 4.89 µM
  GI50: 1.46 µM
  CC50: > 100 µM
SK-MEL-2
  TGI: >100 µM
  GI50: 3.7 µM
  CC50: > 100 µM
NCI-H226
  TGI: >100 µM
  GI50: 4.42 µM
  CC50: > 100 µM
T-47D
  TGI: >100 µM
  GI50: 7.13 µM
  CC50: > 100 µM
PC-3
  TGI: >100 µM
  GI50: 2.4 µM
  CC50: > 100 µM
RPMI-8226
  TGI: >100 µM
  GI50: 3.07 µM
  CC50: > 100 µM
A498
  TGI: >100 µM
  GI50: 2.99 µM
  CC50: > 100 µM

## O=C1C(Nc2ccc(I)cc2)=CC(c2ccc(O)c(O)c2)N1c1ccc(I)cc1 (stereo not drawn) [3h]
UO-31
  GI (%): 54%
HOP-62
  GI (%): 82%
SF-295
  GI (%): 56%
U251
  GI (%): 58%
MDA-MB-468
  GI (%): 100 ^h1%
BT-549
  GI (%): 81%
MDA-MB-435
  inhibition at 10 µM: 73%
SNB-75
  inhibition at 10 µM: 86%
SF-539
  inhibition at 10 µM: 72%
MCF7
  inhibition at 10 µM: 91%
SR
  inhibition at 10 µM: 100%
NCI-H460
  inhibition at 10 µM: 98%
HCT-15
  inhibition at 10 µM: 84%
M14
  inhibition at 10 µM: 99%
K-562
  inhibition at 10 µM: 89%
NCI-H522
  inhibition at 10 µM: 82%
HT-29
  inhibition at 10 µM: 96%
HS 578T
  inhibition at 10 µM: 63%
OVCAR-8
  inhibition at 10 µM: 37%
SN12C
  inhibition at 10 µM: 100%
SK-MEL-5
  inhibition at 10 µM: 94%
LN-229
  cytotoxicity (activity in words): ineffective
TK-10
  TGI: >100 µM
  GI50: > 100 µM
  CC50: > 100 µM
HOP-92
  TGI: 8.97 µM
  GI50: 4.08 µM
  CC50: > 100 µM
SK-MEL-2
  TGI: >100 µM
  GI50: 6.64 µM
  CC50: > 100 µM
NCI-H226
  TGI: >100 µM
  GI50: > 100 µM
  CC50: > 100 µM
T-47D
  TGI: >100 µM
  GI50: 2.41 µM
  CC50: > 100 µM
PC-3
  TGI: >100 µM
  GI50: 8.83 µM
  CC50: > 100 µM
RPMI-8226
  TGI: 6.01 µM
  GI50: 2.4 µM
  CC50: > 100 µM
A498
  TGI: >100 µM
  GI50: > 100 µM
  CC50: > 100 µM
